Laboratory results from patent publication US9708314B2, “Heterocyclic amide compound” (NISSAN CHEMICAL INDUSTRIES, LTD., priority 2013, dated 2017).

How the values were obtained:
Assay type in all cases: in vivo
[1] = tested on: Leptochloa chinensis; assay: Test Example 3: herbicidal effect by application to foliage (Wagner pot, water depth 0.1-0.5 cm); conditions: Nineteenth Table, application to foliage
Method in brief: (§1)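 Scores (0–5) reflect herbicidal ratio three weeks after a foliar spray: 0 is 5% or less, 5 is 90% or more. Plants had grown 14 days in alluvial soil pots in a 25–30 °C greenhouse before treatment with water-diluted emulsion at a set g/ha.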

[2] = tested on: Echinochloa crus-galli var. crus-galli; assay: as above; conditions: Nineteenth Table, application to foliage
Method in brief: as §1

[3] = tested on: Veronica persica; assay: Test Example 4: herbicidal effect by application to foliage (diluvial soil, plastic box); conditions: application to foliage
Method in brief: (§2)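 Greenhouse plants (25° C. to 30° C., 14 d, diluvial soil) receive a foliar spray of water-diluted emulsifiable formulation at defined g/ha. Grading after 3 weeks uses a six-step herbicidal-ratio scale, with 4 covering 70% to <90% and 1 covering 5% to <20%.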

[4] = tested on: Setaria viridis; assay: as above; conditions: application to foliage
Method in brief: as §2

[5] = tested on: Abutilon theophrasti; assay: as above; conditions: application to foliage
Method in brief: as §2

[6] = tested on: Digitaria ciliaris; assay: as above; conditions: application to foliage
Method in brief: as §2

[7] = tested on: Stellaria media; assay: as above; conditions: application to foliage
Method in brief: as §2

[8] = tested on: Avena fatua; assay: as above; conditions: application to foliage
Method in brief: as §2

[9] = tested on: Amaranthus retroflexus; assay: as above; conditions: application to foliage
Method in brief: as §2

[10] = tested on: Galium spurium; assay: as above; conditions: application to foliage
Method in brief: as §2

[11] = tested on: Alopecurus myosuroides; assay: as above; conditions: application to foliage
Method in brief: as §2

[12] = tested on: Chenopodium album; assay: as above; conditions: application to foliage
Method in brief: as §2

[13] = tested on: Lolium multiflorum Lam.; assay: as above; conditions: application to foliage
Method in brief: as §2

[14] = tested on: Apera spica-venti.; assay: as above; conditions: application to foliage
Method in brief: as §2

[15] = tested on: Echinochloa crus-galli var. crus-galli; assay: as above; conditions: application to foliage
Method in brief: as §2

[16] = tested on: Glycine max; assay: Test Example 4: effect on crop by application to foliage (diluvial soil, plastic box); conditions: application to foliage
Method in brief: as §2

[17] = tested on: directly sowed Oryza sativa; assay: as above; conditions: application to foliage
Method in brief: as §2

[18] = tested on: Zea mays; assay: as above; conditions: application to foliage
Method in brief: as §2

[19] = tested on: Brassica campestris L.; assay: as above; conditions: application to foliage
Method in brief: as §2

[20] = tested on: Beta vulgaris ssp. vulgaris; assay: as above; conditions: application to foliage
Method in brief: as §2

[21] = tested on: Triticum aestivum; assay: as above; conditions: application to foliage
Method in brief: as §2

[22] = application herbicide amount 320 g/ha
[23] = application herbicide amount 260 g/ha

C=CCSc1nnc2c(C(=O)Nc3nnnn3C)ccc(C(F)(F)F)n12 [2-102]
D (herbicidal effect grade) [1, 22]: 4 (Herbicidal ratio of 70% or more and less than 90%) | H (herbicidal effect grade) [2, 22]: 5 (Herbicidal ratio of 90% or more (almost completely withered)) | herbicidal effect, R (Veronica persica) ([3]; 320 g/ha): 5 (Herbicidal ratio of 90% or more (almost completely withered)) | herbicidal effect, G (Setaria viridis) ([4]; 320 g/ha): 4 (Herbicidal ratio of 70% or more and less than 90%) | herbicidal effect, M (Abutilon theophrasti) ([5]; 320 g/ha): 5 (Herbicidal ratio of 90% or more (almost completely withered)) | herbicidal effect, F (Digitaria ciliaris) ([6]; 320 g/ha): 5 (Herbicidal ratio of 90% or more (almost completely withered)) | herbicidal effect, P (Stellaria media) ([7]; 320 g/ha): 5 (Herbicidal ratio of 90% or more (almost completely withered)) | herbicidal effect, I (Avena fatua) ([8]; 320 g/ha): 1 (Herbicidal ratio of 5% or more and less than 20%) | herbicidal effect, N (Amaranthus retroflexus) ([9]; 320 g/ha): 5 (Herbicidal ratio of 90% or more (almost completely withered)) | herbicidal effect, Q (Galium spurium) ([10]; 320 g/ha): 3 (Herbicidal ratio of 40% or more and less than 70%) | herbicidal effect, J (Alopecurus myosuroides) ([11]; 320 g/ha): 0 (Herbicidal ratio of 5% or less (almost no effect)) | herbicidal effect, O (Chenopodium album) ([12]; 320 g/ha): 5 (Herbicidal ratio of 90% or more (almost completely withered)) | herbicidal effect, K (Lolium multiflorum Lam.) ([13]; 320 g/ha): 1 (Herbicidal ratio of 5% or more and less than 20%) | herbicidal effect, L (Apera spica-venti.) ([14]; 320 g/ha): 3 (Herbicidal ratio of 40% or more and less than 70%) | herbicidal effect, H (Echinochloa crus-galli var. crus-galli) ([15]; 320 g/ha): 5 (Herbicidal ratio of 90% or more (almost completely withered)) | effect on crop, c (Glycine max) ([16]; 320 g/ha): 0 (Herbicidal ratio of 5% or less (almost no effect)) | effect on crop, d (directly sowed Oryza sativa) ([17]; 320 g/ha): 4 (Herbicidal ratio of 70% or more and less than 90%) | effect on crop, b (Zea mays) ([18]; 320 g/ha): 1 (Herbicidal ratio of 5% or more and less than 20%) | effect on crop, g (Brassica campestris L.) ([19]; 320 g/ha): 3 (Herbicidal ratio of 40% or more and less than 70%) | effect on crop, f (Beta vulgaris ssp. vulgaris) ([20]; 320 g/ha): 5 (Herbicidal ratio of 90% or more (almost completely withered)) | effect on crop, e (Triticum aestivum) ([21]; 320 g/ha): 1 (Herbicidal ratio of 5% or more and less than 20%)

Cn1nnnc1NC(=O)c1ccc(C(F)(F)F)n2c(C=O)nnc12 [2-109]
D (herbicidal effect grade) [1, 23]: 5 (Herbicidal ratio of 90% or more (almost completely withered)) | H (herbicidal effect grade) [2, 23]: 3 (Herbicidal ratio of 40% or more and less than 70%) | herbicidal effect, R (Veronica persica) ([3]; 256 g/ha): 5 (Herbicidal ratio of 90% or more (almost completely withered)) | herbicidal effect, G (Setaria viridis) ([4]; 256 g/ha): 2 (Herbicidal ratio of 20% or more and less than 40%) | herbicidal effect, M (Abutilon theophrasti) ([5]; 256 g/ha): 5 (Herbicidal ratio of 90% or more (almost completely withered)) | herbicidal effect, F (Digitaria ciliaris) ([6]; 256 g/ha): 3 (Herbicidal ratio of 40% or more and less than 70%) | herbicidal effect, P (Stellaria media) ([7]; 256 g/ha): 5 (Herbicidal ratio of 90% or more (almost completely withered)) | herbicidal effect, I (Avena fatua) ([8]; 256 g/ha): 1 (Herbicidal ratio of 5% or more and less than 20%) | herbicidal effect, N (Amaranthus retroflexus) ([9]; 256 g/ha): 5 (Herbicidal ratio of 90% or more (almost completely withered)) | herbicidal effect, Q (Galium spurium) ([10]; 256 g/ha): 3 (Herbicidal ratio of 40% or more and less than 70%) | herbicidal effect, J (Alopecurus myosuroides) ([11]; 256 g/ha): 0 (Herbicidal ratio of 5% or less (almost no effect)) | herbicidal effect, O (Chenopodium album) ([12]; 256 g/ha): 5 (Herbicidal ratio of 90% or more (almost completely withered)) | herbicidal effect, K (Lolium multiflorum Lam.) ([13]; 256 g/ha): 1 (Herbicidal ratio of 5% or more and less than 20%) | herbicidal effect, L (Apera spica-venti.) ([14]; 256 g/ha): 0 (Herbicidal ratio of 5% or less (almost no effect)) | herbicidal effect, H (Echinochloa crus-galli var. crus-galli) ([15]; 256 g/ha): 4 (Herbicidal ratio of 70% or more and less than 90%) | effect on crop, c (Glycine max) ([16]; 256 g/ha): 0 (Herbicidal ratio of 5% or less (almost no effect)) | effect on crop, d (directly sowed Oryza sativa) ([17]; 256 g/ha): 4 (Herbicidal ratio of 70% or more and less than 90%) | effect on crop, b (Zea mays) ([18]; 256 g/ha): 1 (Herbicidal ratio of 5% or more and less than 20%) | effect on crop, g (Brassica campestris L.) ([19]; 256 g/ha): 4 (Herbicidal ratio of 70% or more and less than 90%) | effect on crop, f (Beta vulgaris ssp. vulgaris) ([20]; 256 g/ha): 5 (Herbicidal ratio of 90% or more (almost completely withered)) | effect on crop, e (Triticum aestivum) ([21]; 256 g/ha): 1 (Herbicidal ratio of 5% or more and less than 20%)

COc1ccc(N(C)c2nnc3c(C(=O)Nc4nnnn4C)ccc(C(F)(F)F)n23)cc1 [2-099]
D (herbicidal effect grade) [1, 22]: 5 (Herbicidal ratio of 90% or more (almost completely withered)) | H (herbicidal effect grade) [2, 22]: 5 (Herbicidal ratio of 90% or more (almost completely withered)) | herbicidal effect, R (Veronica persica) ([3]; 320 g/ha): 5 (Herbicidal ratio of 90% or more (almost completely withered)) | herbicidal effect, G (Setaria viridis) ([4]; 320 g/ha): 4 (Herbicidal ratio of 70% or more and less than 90%) | herbicidal effect, M (Abutilon theophrasti) ([5]; 320 g/ha): 4 (Herbicidal ratio of 70% or more and less than 90%) | herbicidal effect, F (Digitaria ciliaris) ([6]; 320 g/ha): 5 (Herbicidal ratio of 90% or more (almost completely withered)) | herbicidal effect, P (Stellaria media) ([7]; 320 g/ha): 5 (Herbicidal ratio of 90% or more (almost completely withered)) | herbicidal effect, I (Avena fatua) ([8]; 320 g/ha): 2 (Herbicidal ratio of 20% or more and less than 40%) | herbicidal effect, N (Amaranthus retroflexus) ([9]; 320 g/ha): 4 (Herbicidal ratio of 70% or more and less than 90%) | herbicidal effect, Q (Galium spurium) ([10]; 320 g/ha): 4 (Herbicidal ratio of 70% or more and less than 90%) | herbicidal effect, J (Alopecurus myosuroides) ([11]; 320 g/ha): 0 (Herbicidal ratio of 5% or less (almost no effect)) | herbicidal effect, O (Chenopodium album) ([12]; 320 g/ha): 5 (Herbicidal ratio of 90% or more (almost completely withered)) | herbicidal effect, K (Lolium multiflorum Lam.) ([13]; 320 g/ha): 1 (Herbicidal ratio of 5% or more and less than 20%) | herbicidal effect, L (Apera spica-venti.) ([14]; 320 g/ha): 1 (Herbicidal ratio of 5% or more and less than 20%) | herbicidal effect, H (Echinochloa crus-galli var. crus-galli) ([15]; 320 g/ha): 5 (Herbicidal ratio of 90% or more (almost completely withered)) | effect on crop, c (Glycine max) ([16]; 320 g/ha): 0 (Herbicidal ratio of 5% or less (almost no effect)) | effect on crop, d (directly sowed Oryza sativa) ([17]; 320 g/ha): 4 (Herbicidal ratio of 70% or more and less than 90%) | effect on crop, b (Zea mays) ([18]; 320 g/ha): 3 (Herbicidal ratio of 40% or more and less than 70%) | effect on crop, g (Brassica campestris L.) ([19]; 320 g/ha): 4 (Herbicidal ratio of 70% or more and less than 90%) | effect on crop, f (Beta vulgaris ssp. vulgaris) ([20]; 320 g/ha): 5 (Herbicidal ratio of 90% or more (almost completely withered)) | effect on crop, e (Triticum aestivum) ([21]; 320 g/ha): 0 (Herbicidal ratio of 5% or less (almost no effect))
